In patent publication US9522920B2, “Bromodomain inhibitors and uses thereof” (Constellation Pharmaceuticals, Inc., priority 2010, dated 2016):
Where two headings read alike, the source gives them in different places.

Assays:
[1] = target: T1, BRD4(BD1) (Homo sapiens, UniProt O60885); test: BRD4 AlphaLisa binding assay (Alphascreen)
T1 construct: His; made in house
Method in brief: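 BRD4(BD1) (30 nM) incubated 20 min at room temperature with peptide (200 nM) and compound in 40 mM HEPES pH 7.0, 40 mM NaCl, 1 mM DTT, 0.01% BSA, 0.008% Brij-35, 1.2% DMSO.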

[2] = system: IL-6 secretion; test: Cell-based IL-6 quantification assay (ELISA, Mesoscale) in LPS-stimulated THP-1 cells; settings: THP-1 cells, 16 h, read-out: IL6
Method in brief: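 THP-1 cells stimulated with LPS at 4 μg/mL final and exposed to compounds for 16 h. Supernatant IL-6 measured by Mesoscale ELISA and normalized to CellTiter-Glo cell content. Percent inhibition derived from that ratio.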

[3] = system: MYC mRNA; test: cMyc RNA quantification assay (QuantiGene) in MV4:11 cells; format: cell-based; settings: read-out: MYC-MV411
Method: MV4:11 (AML) or Raji (Burkitt's lymphoma) cells were seeded in a 96-well plate and incubated in the presence of various concentrations of compounds for 4 h. Relative mRNA levels were quantitated by using QuantiGene 2.0 assay (Affymetrix) according to the manufacturer's recommendation. Signals were detected by using an Envision plate reader (Perkin-Elmer). Biological duplicates were averaged and normalized to vehicle (DMSO) control to calculate percent MYC mRNA levels.

[4] = system: Myc RNA; test: Myc RNA quantification in xenograft model; format: in vivo, NOD SCID mice; settings: for ED50: Mus musculus, Raji, po
Method: Female NOD SCID mice (Harlan) were inoculated s.c. with 3×10^6 Raji cells per mouse resuspended in 10% Matrigel. Tumors were grown until they reached a size of 200 mm^3 to 400 mm^3 as measured by caliper. Mice were treated orally (5 mL/kg) with different doses of compounds prepared as a 2 mg/mL suspension of Carboxy-methyl-cellulose. At the indicated time points after treatment, tumors were harvested. RNA was isolated by using TRIzol extraction and processed for QuantiGene® Assay.

[5] = system: LPS-induced IL-6 production; test: In-vivo inhibition of LPS-induced IL-6 production; design: species or system Balb/C mice; settings: for ED50: Mus musculus; for ED50 (mg/kg): Table 15, oral gavage 30 min prior to LPS, plasma IL-6 ELISA two hours after LPS challenge, 50% inhibition compared to vehicle
Method: Female Balb/C mice, 6 weeks old upon arrival at animal facility, and weighing 18-20 g/mouse were used for this assay. The mice are acclimated in animal facility for 5-7 days prior experiment initiation. Mice were randomly divided into experimental groups to include several doses of test article, and vehicle and dexamethasone controls. Mice were fasted from 12 hours prior to study initiation (dosing), but allowed free access to water. Mice were dosed following study group design by oral gavage 30 min prior to LPS stimulation. Dosing interval time was 1 min/mouse.
Two hours after LPS challenge animals were anesthetized by CO2 inhalation, and blood was sampled via cardiac puncture into EDTA coated tubes and placed on ice. Plasma was separated by centrifugation at 3000 g at 4° C. for 15 min. The separated plasma was divided into aliquots (50 ul/aliquot) and stored at −80° C. until plasma IL-6 ELISA and drug levels were analyzed.

[6] = system: MYC mRNA; test: cMyc RNA quantification assay (QuantiGene) in Raji cells; format: cell-based; settings: 4 h
Method in brief: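 MV4:11 or Raji cells were treated with a range of compound concentrations for 4 h. MYC mRNA was measured by QuantiGene 2.0, and biological duplicates were averaged and normalized to DMSO vehicle to give percent MYC mRNA.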

[7] = Table 6, BRD4(BD1) 30 nM, H4-tetraacetyl peptide 200 nM, read-out: BRD4 Alphascreen IC50
[8] = Homo sapiens, THP-1, 16 h, Table 7, LPS 4 μg/mL, normalised to CellTiter-Glo
[9] = Homo sapiens, MV4-11, 4 h, Table 7, MV4:11 (AML) cells
[10] = Homo sapiens, Table 7, Raji (Burkitt's lymphoma) cells
[11] = Table 7, LPS 4 μg/mL, normalised to CellTiter-Glo
[12] = Table 7, Raji (Burkitt's lymphoma) cells
[13] = Table 7, MV4:11 (AML) cells, 4 h
[14] = Table 14, BRD4 AlphaLisa Binding Assay, read-out: Alpha screen
[15] = Homo sapiens, THP-1, 16 h, Table 14, LPS
[16] = Homo sapiens, MV4-11, 4 h, Table 14, MV4:11 cells
[17] = Homo sapiens, Table 14, Raji cells

SMILES | IC50 [1, 7] [nM] | IC50 [6, 10] [nM] | IC50 [1, 14] [nM] | IC50 [2, 15] [nM] | IC50 [3, 16] [nM] | IC50 [6, 17] [nM] | IC50 [2, 8] [nM] | ED50 [4] [mg/kg] | ED50 [5] [mg/kg] | also measured
Cc1noc2c1-c1sc(C)c(C)c1C(c1ccc(C#N)cc1)=NC2CC(=O)NCCF (centres unmarked) [Compound 114] | < 500 | < 500 |  |  |  |  | < 500 | 20 to 50 |  | 
Cc1noc2c1-c1ccccc1C(c1ccc(Cl)cc1)=N[C@H]2CC(N)=O [Compound 144] |  |  |  |  |  |  |  |  |  | IC50 [2, 11]: < 500 nM; IC50 [3, 13]: < 500 nM; ED50 (mg/kg) ([4]; Table 16, Raji xenograft tumors, oral treatment, Myc RNA by QuantiGene, 50% inhibition compared to vehicle): ++ (“++” indicates an ED50 of less than 20 mg/kg); ED50 (mg/kg) [5]: ++ (“++” indicates an ED50 of less than 10 mg/kg); IC50 [6, 12]: < 500 nM
Cc1noc2c1-c1ccccc1C(c1ccc(C#N)cc1)=N[C@H]2CC(N)=O [Compound 148] | < 500 |  |  |  |  |  |  |  |  | IC50 [2, 11]: < 500 nM; IC50 [3, 13]: < 500 nM; ED50 (mg/kg) [5]: + (“+” indicates and ED50 of between 10 and 50 mg/kg); IC50 [6, 12]: < 500 nM
CCNC(=O)C[C@@H]1N=C(c2ccc(Cl)cc2)c2c(sc(C)c2C)-c2c(C)noc21 [Compound 165, 2-((6S)-4-(4-chlorophenyl)-2,3,9-trimethyl-6H-isoxazolo[4,5-e]thieno[3,2-c]azepin-6-yl)-N-ethylacetamide] | < 500 | < 500 |  |  |  |  | < 500 |  | 10 to 50 | 
Cc1noc2c1-c1ccc(-c3ccc(N)nc3)cc1C(c1ccc(C(F)(F)F)cc1)=N[C@H]2CC(N)=O [Compound 206] |  |  | < 500 | < 500 | < 500 | < 500 |  |  |  | 
Cc1noc2c1-c1sc(C)c(C)c1C(c1ccc(C(F)(F)F)cc1)=NC2CC(N)=O (centres unmarked) [Compound 208] |  |  | < 500 | < 500 | < 500 | < 500 |  |  |  | 
Cc1noc2c1-c1sc(C)c(C)c1C(c1ccc(C#N)cc1)=N[C@H]2[C@@H](C)C(N)=O [Compound 209, (2R)-2-((6S)-4-(4-cyanophenyl)-2,3,9-trimethyl-6H-isoxazolo[5,4-c]thieno[2,3-e]azepin-6-yl)propanamide] |  |  | < 500 | < 500 | < 500 | 500 to 1000 |  |  |  | 

Second part, led by results:

IC50 [1, 7] [nM] | IC50 [6, 10] [nM] | IC50 [1, 14] [nM] | IC50 [2, 15] [nM] | IC50 [3, 16] [nM] | IC50 [6, 17] [nM] | SMILES | IC50 [2, 8] [nM] | ED50 [4] [mg/kg] | ED50 [5] [mg/kg] | also measured
< 500 | < 500 |  |  |  |  | Cc1noc2c1-c1sc(C)c(C)c1C(c1ccc(Cl)cc1)=N[C@H]2CC(N)=O [Compound 110, 2-((6S)-4-(4-chlorophenyl)-2,3,9-trimethyl-6H-isoxazolo[5,4-c]thieno[2,3-e]azepin-6-yl)acetamide] | < 500 | 20 to 50 | < 10 | IC50 [3, 9]: < 500 nM
< 500 |  |  |  |  |  | Cc1cccc2c1C(c1ccc(Cl)cc1)=NC(CC(N)=O)c1onc(C)c1-2 (centres unmarked) [Compound 128] |  |  |  | IC50 [2, 11]: < 500 nM; ED50 (mg/kg) [5]: ++ (“++” indicates an ED50 of less than 10 mg/kg); IC50 [6, 12]: < 500 nM
< 500 | < 500 |  |  |  |  | Cc1cccc2c1C(c1ccc(F)cc1)=NC(CC(N)=O)c1onc(C)c1-2 (centres unmarked) [Compound 129] | < 500 | 20 to 50 | < 10 | 
< 500 | < 500 |  |  |  |  | Cc1cccc2c1C(c1ccc(C(F)(F)F)cc1)=NC(CC(N)=O)c1onc(C)c1-2 (centres unmarked) [Compound 132] | < 500 | < 20 | < 10 | IC50 [3, 9]: < 500 nM
< 500 | < 500 |  |  |  |  | CNc1nccc2c1C(c1ccc(Cl)cc1)=N[C@@H](CC(N)=O)c1onc(C)c1-2 [Compound 181, 2-((4S)-6-(4-chlorophenyl)-1-methyl-7-(methylamino)-4H-isoxazolo[5,4-c]pyrido[4,3-e]azepin-4-yl)acetamide] | < 500 |  |  | IC50 [3, 9]: < 500 nM
 |  | < 500 | < 500 | < 500 | 500 to 1000 | Cc1noc2c1-c1ccc(F)cc1C(c1ccc(Cl)cc1)=N[C@H]2CC(N)=O [Compound 210] |  |  |  | 
